Values quoted from earlier work, collected in article PMC12175978, “First-in-Human Serum Stability Studies of [^177Lu]Lu-AMTG: A Step Toward Improved GRPR-Targeted Radiopharmaceutical Therapy” (Journal of Nuclear Medicine, 2025).
Like-named read-outs stand apart in the source and are kept apart here.

| Substance | in vivo serum stability in humans (in words) (in vivo) | in vivo serum stability in humans (in words) (human) |
| --- | --- | --- |
| [^177Lu]Lu-DOTATATE | very stable |  |
| [^177Lu]Lu-PSMA-617 |  | very stable |
